# According to US11766443B2, “Cyclopentathiophene carboxamide derivatives as platelet activating factor receptor antagonists” (Boehringer Ingelheim International GmbH, priority 2021, dated 2023):
# Assays:
# [1] = aqueous solubility in buffer (from DMSO stock, 24 h shaking, LC-UV); conditions: pH 2.2, aqueous buffer, kinetic from dmso stock
# Procedure: (§1) The aqueous solubility of the test compound is determined by comparing the amount dissolved in buffer to the amount in an ACN/water (1/1) solution. Starting from a 10 mM DMSO stock solution aliquots are diluted with ACN/water (1/1) or buffer, respectively. After 24 h of shaking, the solutions are filtrated and analyzed by LC-UV. The amount dissolved in buffer is compared to the amount in the ACN solution.
# (§2) Solubility will usually be measured from 0.001 to 0.125 mg/mL at a DMSO concentration of 2.5%. If more than 90% of the compound is dissolved in buffer, the value is marked with “>”.
# human PAFR = molecular target: T1, human PAFR (Homo sapiens, UniProt P25105); assay: cellular HTRF IP1 endpoint assay: inhibition of PAFR activation by PAF C-16 ligand; type: cell-based; conditions: HEK293 cells overexpressing human PAFR; PAF ligand 11 nM
# T1 construct: expressed in transfected cells; host or cells: HEK293
# Procedure: The ability of compounds of formula (I.0) to inhibit the activation of the PAF receptor (PAFR) by the PAF C-16 ligand (PAF) is determined using the following cellular HTRF IP1 assay (IP1 Gq assay kit from Cisbio, Cat. no.: 62IP1APEJ) in assay buffer (1×HBSS, 20 mM Hepes, pH 7.4, 50 mM LiCl and containing 0.1% (w/v) BSA):
# HEK293 cells overexpressing human PAFR (produced in-house) are seeded into a Poly-D-Lysine coated 384 well white cell culture microtiter assay plate with lid (15.000 cells per well). Subsequently, the plates are incubated over night at 37° C./5% CO2. On the next day, cells are being washed and subsequently, various concentrations of the test compounds (compounds in 100% DMSO; final concentration of DMSO in wells is 1%) are added to the assay plate via Echo 555 acoustic liquid handler. Plates are then incubated with lid for 90 minutes at 37° C./5% CO2. Thereafter, PAF ligand (Cayman Chemical Company, Item no.: 60900) is added at a final concentration of 11 nM. Plates are then incubated with lid for 60 minutes at 37° C./5% CO2. Then, 5 μl per well of Anti-IP1-Anti body-Cryptate solution and 5 μL per well of IP1-d2 solution are added to all wells of the plate and the plate is incubated for another 60 minutes light protected at room temperature. The emissions at 620 nm and 665 nm (Excitation wavelength: 320 nm) are measured using an Envision Reader (PerkinElmer).
# [2] = chemical stability in acidic aqueous media (pH ca. 1.2), HPLC recovery; type: physicochemical; conditions: acetonitrile/0.1 M aqueous HCl 2:3, pH ca. 1.2, 37° C.
# Procedure: Degradation studies are used to simulate chemical stability of compounds in the acidic part of the gastro intestinal tract. The compounds of the invention show high chemical stability in acidic aqueous media (pH value ca. 1.2) what makes their application as medical drugs to treat human diseases less restricted and troublesome.
# The chemical stability of the compounds of the invention at pH value of ca. 1.2 is determined as follows: Compound is dissolved in an HPLC vial in a mixture of acetonitrile/0.1 M aqueous HCl (ratio: 2:3; pH ca. 1.2) to get a concentration of approximately 0.25 mg/ml. The vial is then transferred into an HPLC autosampler system and maintained at a temperature of 37° C. A first sample is taken and injected immediately into a standard HPLC system with a UV DAD detector. A further samples is injected after 24 hours. Amount of degraded compound is measured by determining the recovery rate of compound [%] for the 24 h injection using an HPLC standard gradient method. Therefore the peak area of the main peak for the first injection (AUt0) is determined and set as 100%. Peak area of the main peak is determined also for the 24 h injection (AU24 h) and expressed as fraction of (AU24 h)/(AUt0)[%].
# physchem = conditions: pH 2.2, aqueous buffer, kinetic from dmso stock
# Procedure: as §1, §2
# T1 sequence (P25105 whole entry): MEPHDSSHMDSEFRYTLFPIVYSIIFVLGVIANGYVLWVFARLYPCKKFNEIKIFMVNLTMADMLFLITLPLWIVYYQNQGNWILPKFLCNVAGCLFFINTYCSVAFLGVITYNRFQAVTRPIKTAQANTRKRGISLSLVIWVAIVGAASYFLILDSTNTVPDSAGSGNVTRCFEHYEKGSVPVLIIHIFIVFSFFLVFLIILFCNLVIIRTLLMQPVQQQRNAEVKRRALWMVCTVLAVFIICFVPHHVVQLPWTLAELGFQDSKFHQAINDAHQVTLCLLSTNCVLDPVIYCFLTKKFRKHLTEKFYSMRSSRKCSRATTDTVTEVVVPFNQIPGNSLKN
smiles,measurement,setting,value
"Cc1nnc2n1-c1sc3c(c1[C@H](c1ccccc1Cl)NC2)C[C@H](C(=O)N1CCOCC1)C3 [Example 2, (9R,13S)-9-(2-Chlorophenyl)-3-methyl-13-(morpholine-4-carbonyl)-16-thia-2,4,5,8-tetraazatetracyclo[8.6.0.0^2,6.0^11,15]-hexadeca-1(10),3,5,11(15)-tetraene]",solubility at 24 h,[1],> 117 µg/mL
same,IC50,human PAFR,30 nM
same,Amount of degradation after 24 h,[2],1%
Cc1nnc2n1-c1sc3c(c1[C@H](c1ccccc1Cl)NC2)C[C@H](C(=O)NCCOC(F)(F)F)C3 [Example 17],solubility at 24 h,[1],> 114 µg/mL
same,IC50,human PAFR,2.8 nM
same,Amount of degradation after 24 h,[2],2%
CCCNC(=O)[C@@H]1Cc2sc3c(c2C1)[C@H](c1ccccc1Cl)NCc1nnc(C)n1-3 [Example 19],solubility at 24 h,[1],> 111 µg/mL
same,IC50,human PAFR,3 nM
same,Amount of degradation after 24 h,[2],3%
Cc1nnc2n1-c1sc3c(c1[C@H](c1ccccc1Cl)NC2)C[C@H](C(=O)N1CC2CC1C2)C3 [Example 21],solubility at 24 h,[1],> 105 µg/mL
same,IC50,human PAFR,9.1 nM
same,Amount of degradation after 24 h,[2],1%
Cc1nnc2n1-c1sc3c(c1[C@H](c1ccccc1Cl)NC2)C[C@H](C(=O)N1CCOC(C)(C)C1)C3 [Example 26],solubility at 24 h,[1],> 136 µg/mL
same,IC50,human PAFR,4.9 nM
same,Amount of degradation after 24 h,[2],2.5%^
Cc1nnc2n1-c1sc3c(c1[C@H](c1ccccc1Cl)NC2)C[C@H](C(=O)NC1CCC1)C3 [Example 28],solubility at 24 h,[1],> 142 µg/mL
same,IC50,human PAFR,1.7 nM
same,Amount of degradation after 24 h,[2],0.5%^
"Cc1nnc2n1-c1sc3c(c1C(c1ccccc1Cl)NC2)CC(C(=O)N1CCCC2(CC2)C1)C3 (stereo not shown) [Example 66, 13-{5-Azaspiro[2.5]octane-5-carbonyl}-9-(2-chlorophenyl)-3-methyl-16-thia-2,4,5,8-tetraazatetracyclo-[8.6.0.0^2,6.0^11,15]hexadeca-1(10),3,5,11(15)-tetraene]",IC50,human PAFR,2.7 nM
same,solubility at 24 h,physchem,> 124 µg/mL
"CCCN(CCC)C(=O)[C@@H]1Cc2sc3c(c2C1)[C@@H](c1ccccc1Cl)NCc1nnc(C)n1-3 [Example 72, (9S,13S)-9-(2-Chlorophenyl)-3-methyl-N,N-dipropyl-16-thia-2,4,5,8-tetraazatetracyclo[8.6.0.0^2,6.0^11,15]hexadeca-1(10),3,5,11(15)-tetraene-13-carboxamide]",solubility at 24 h,[1],> 101 µg/mL
same,IC50,human PAFR,8.1 nM
"CCCN(CCC)C(=O)[C@@H]1Cc2sc3c(c2C1)[C@H](c1ccccc1Cl)NCc1nnc(C)n1-3 [Example 73, (9R,13S)-9-(2-chlorophenyl)-3-methyl-N,N-dipropyl-16-thia-2,4,5,8-tetraazatetracyclo[8.6.0.0^2,6.0^11,15]hexadeca-1(10),3,5,11(15)-tetraene-13-carboxamide]",solubility at 24 h,[1],> 110 µg/mL
same,IC50,human PAFR,0.7 nM
Cc1nnc2n1-c1sc3c(c1C(c1ccccc1)NC2)CC(C(=O)N1CCOCC1)C3 (stereo not shown) [Example 74],solubility at 24 h,[1],> 104 µg/mL
same,IC50,human PAFR,252 nM
"O=C(C1Cc2sc3c(c2C1)C(c1ccccc1Cl)NCc1nnc(C2CC2)n1-3)N1CCOCC1 (stereo not shown) [Example 81, 9-(2-Chlorophenyl)-3-cyclopropyl-13-(morpholine-4-carbonyl)-16-thia-2,4,5,8-tetraazatetracyclo[8.6.0.0^2,6.0^11,15]hexadeca-1(10),3,5,11(15)-tetraene]",solubility at 24 h,[1],68 µg/mL
same,IC50,human PAFR,224 nM
